Results reported in patent US5053399A, “Myo-inositol analogs and methods for their use” (University of Pittsburgh, priority 1990, dated 1991).

Key:
PC12 cells [1] = assay: Effects of fluoroinositol treatment on cell size (protein per cell, Lowry); format: cell-based, rat
Excerpt: As cells grow in culture, the size of an individual cell varies in a fairly predictable way. The size of a cell can be expressed as the amount of protein present per cell. […] Immediately after mitosis, the cell size drops considerably, frequently to levels approximately half of the pre-mitotic level.
By investigating the size of a cell, it is possible to determine at which point within the cell cycle inhibitors of cell replication are exerting their effects. Accordingly, we investigated the effect of the 1- and 3-fluoro-myo-inositol analogs on the size of cells chronically treated with such analogs.
Cells were grown and treated with 1- and 3-fluoro-myo-inositol analogs as described in Example XIII. On the days indicated, cells were gently harvested without disruption, and the number of cells counted in triplicate in a cell counting chamber. Following determination of the number of cells per sample, the remainder of the cells were pelleted in a microcentrifuge as described hereinabove, and the protein in the sample was determined by the method of Lowry. Thus, it was possible to derive from these two data sets the amount of protein per cell, which is expressed as nanograms of protein per cell, as indicated in Table 3: […]

myo-inositol transporter = biological target: T1, myo-inositol transporter (Rattus norvegicus, UniProt Q80WA5); assay: [3H]myo-inositol uptake by the myo-inositol transporter in PC12 cells; format: cell-based; settings: for Maximal Transport Rate Vmax: in presence of fixed 1 mM analog
T1 construct: PC12 cells were gently detached and maintained in a suspension culture; endogenous in cells; host or cells: PC12
T1 sequence (Q80WA5 1-718): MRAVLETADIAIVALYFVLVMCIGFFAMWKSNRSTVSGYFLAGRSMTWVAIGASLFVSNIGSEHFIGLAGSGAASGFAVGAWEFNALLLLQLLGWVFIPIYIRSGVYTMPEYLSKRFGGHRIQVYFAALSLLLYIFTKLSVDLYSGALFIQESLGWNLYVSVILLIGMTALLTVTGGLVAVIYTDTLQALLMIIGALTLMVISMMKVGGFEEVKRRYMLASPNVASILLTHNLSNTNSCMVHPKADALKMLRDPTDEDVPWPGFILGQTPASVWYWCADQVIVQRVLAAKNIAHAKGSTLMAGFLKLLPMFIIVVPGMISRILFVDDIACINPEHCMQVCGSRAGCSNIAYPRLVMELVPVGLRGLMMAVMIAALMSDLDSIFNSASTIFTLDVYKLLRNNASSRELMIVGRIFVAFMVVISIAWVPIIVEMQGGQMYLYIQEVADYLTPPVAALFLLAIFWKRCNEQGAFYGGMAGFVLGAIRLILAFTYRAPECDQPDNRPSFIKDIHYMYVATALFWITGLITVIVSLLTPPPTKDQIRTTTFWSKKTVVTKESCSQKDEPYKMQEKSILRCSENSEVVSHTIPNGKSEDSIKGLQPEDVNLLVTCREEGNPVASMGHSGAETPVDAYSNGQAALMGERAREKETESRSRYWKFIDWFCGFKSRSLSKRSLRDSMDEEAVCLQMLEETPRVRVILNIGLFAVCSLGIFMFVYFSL
Experimental: To determine if the effect of the fluoro-myo-inositol analogs might be mediated by the blockade of the myo-inositol transporter, which is responsible for uptake and accumulation of myo-inositol into the cell, the ability of these two compounds to block [^3 H]myo-inositol transport was studied directly.
The uptake of [^3 H]myo-inositol by the myo-inositol transporter was determined as follows: PC12 cells were gently detached and maintained in a suspension culture in RPMI medium (both myo-inositol and serum free) at 37° C. [^3 H]myo-inositol was added to this culture at a concentration of 1μCi/ml. Aliquots of this suspension were removed at the indicated time, diluted in 10 volumes of ice-cold PBS containing 10 mM unlabelled myo-inositol to stop the uptake process, centrifuged at 4° C. for 20 minutes at 50xg. The cell pellet, which contained the transported [^3 H]myo-inositol, was dissolved in dilute NaOH and the radioactivity quantified by liquid scintillation counting.
The […] and Vmax of myoinositol were determined from LineweaverBurke plots
of the uptake of [^3 H]myoinositol (25 nM) in the presence of
increasing concentrations of unlabeled myoinositol in PC12 cells. The Ki
of the two fluoromyo-inositol analogs was determined by conducting the
uptake studies in the presence of a fixed concentration (1 mM) of each

PC12 cells [2] = assay: Cell growth inhibition in PC12 cells (cell counts; dose response and time course); format: cell-based, rat; settings: dose response
Experimental: The biological effects of the 3-fluoro and 1-fluoro myo-inositol analogs were tested in PC12 cells, a cell line derived from a rat pheochromocytoma, which has been widely used to study the effects of various growth factors and differentiation promoters as further described by Green, L. A., et al., Adv. Cell Neurobiol., 3, 373-414, (1982), the disclosure of which is incorporated herein by reference.
PC12 cells were seeded at a density of 3.3×10^5 cells/cm^2 in plastic culture dishes and grown at 37° C. in a humidified atmosphere of 95% air/5% CO2. The basal medium used in these experiments was RPMI-1640 medium (Gibco). In some experiments a specially formulated inositol-free RPMI-1640 medium (Gibco) was used. This basal medium was supplemented with either normal or extensively dialyzed horse serum (10%) and fetal calf serum (5%) (Gibco). […]
A dose-response study was performed by growing cells in the presence of certain concentrations of the 3-fluoro and the 1-fluoro-myo-inositol analogs. At the end of five days, the cells were counted by the means described hereinabove.
The time course effect on cell replication was then examined, using the concentration of 1-fluoro and 3-fluoro myo-inositol analogs determined to have maximal effects in the dose response study of Table 1. […]

PC12 cells [3] = assay: Uptake and incorporation of [3H]myo-inositol into PC12 cells following treatment with inositol analogs; format: cell-based, rat
Experimental: Since myo-inositol must be incorporated into the cellular plasma membranes in order for it to serve its role as a second messenger, we therefore verified the ability of the 1- and 3-fluoro-myo-inositol analogs to perturb the incorporation of myo-inositol into cellular plasma membranes by the enzyme CDP-diacylglycerol-inositol phosphatidyltransferase (phosphatidylinositol synthetase).
These tests were conducted by treating cells for either 1, 3, 5, or 7 days with the myo-inositol analogs, followed by a brief exposure to radiolabeled myo-inositol ([^3 H]myo-inositol). The extent of incorporation of tritiated myo-inositol would, therefore, reflect the extent to which phosphatidylinositol and its phosphorylated analogs are deficient in the cellular plasma membranes.
Cells were grown as described hereinabove. Twenty-four hours after plating, the medium was changed and cells were exposed to either inositol free medium (Control 2) or medium containing either the 1- or the 3-fluoro-myo-inositol analog. […] Samples from both the pellet and supernatant were then obtained and the levels of radioactivity in each were determined. Radioactivity in the supernatant corresponded to the amount of free [^3 H]myo-inositol in the cytoplasm of the cell, whereas the radioactivity present in the TCA-precipated pellet represented [^3 H]myo-inositol incorporated into the cellular plasma membranes. […]

Structure (SMILES) | plateau of protein per cell relative to protein levels on day one (PC12 cells [1]) | Maximal Transport Rate Vmax (myo-inositol transporter) | potency in inhibiting cell replication relative to the 3-fluoro-myo-inositol analog (PC12 cells [2]) | potency in inhibiting cell replication relative to the 3-fluoro-myo-inositol analog (PC12 cells [2]; listed as I-fluoro-myo-inositol analog) | increase in the number of unoccupied sites for myo-inositol in the cellular plasma membranes (PC12 cells [3]; after several days of exposure) | level of radioactively-labeled myo-inositol incorporated into the cellular plasma membranes (PC12 cells [3]; PC12 cells, result in words) | Affinity Constant K (Ka) (myo-inositol transporter; Lineweaver-Burke plots, [3H]myo-inositol 25 nM with increasing unlabeled myo-inositol)
O[C@@H]1[C@@H](O)[C@@H](O)[C@@H](F)[C@H](O)[C@H]1O [1-deoxy-1-fluoroinositol, 1-deoxy-1-fluoro-myo-inositol] | approximately twice | 2.27 nmol/mg/h | about five-fold more potent | 5 fold | 10 fold |  | 
O[C@@H]1[C@@H](O)[C@H](O)[C@@H](F)[C@@H](O)[C@H]1O [3-deoxy-3-fluoroinositol, 3-deoxy-3-fluoro-myo-inositol] |  | 2.27 nmol/mg/h |  |  |  | quite low | 
O[C@H]1[C@H](O)[C@@H](O)[C@H](O)[C@@H](O)[C@H]1O [Myo-inositol, myo-inositol] |  |  |  |  |  |  | 45 µM
